Assay results published in patent US20080096969A1, “N alpha-(Menthanecarbonyl)amino acid amides and use thereof as physiological cooling active ingredients” (SYMRISE GMBH & CO. KG, priority 2006, published 2008).

Tests used:
[1] = study of approx. 1200 compounds; cited from earlier work
[2] = forms the free acid N-(L-menthanecarbonyl)glycine; cited from earlier work
[3] = Organoleptic test of cooling action in confectioner's fondant by a panel of experts; type: in vivo; conditions: 0.05 wt. % relative to the overall preparation, scale from 1 (no cooling action) to 9 (extremely strong cooling action)
Procedure: The compounds were tested for their organoleptic properties, in particular their cooling action. To this end, they were dissolved, in each case in a specific final concentration, in a mass prepared from sucrose (saccharose) and water (confectioner's fondant, supplier Nordzucker A G, Nordstemmen) and evaluated by a panel of experts. Sensory impressions were rated and the cooling action was assessed on a scale from 1 (no cooling action) to 9 (extremely strong cooling action).

Row | SMILES | cooling action (literature) [1] | susceptibility to hydrolysis [2] | cooling action [3]
1 | CCNC(=O)C1CC(C)CCC1C(C)C [WS3, L-menthane carboxylic acid N-ethylamide] | most strongly cooling active ingredients |  | 
2 | CC1CCC(C(C)C)C(C(=O)NCC(=O)O)C1 [N-(L-menthanecarbonyl)glycine] | very weak cooling action |  | 
3 | CCOC(=O)CNC(=O)C1CC(C)CCC1C(C)C [WS5, N^α-(L-menthanecarbonyl)glycine ethyl ester] | most strongly cooling active ingredients | susceptible to hydrolysis | 
4 | CC(C)CNC(=O)CNC(=O)[C@@H]1C[C@H](C)CC[C@H]1C(C)C [Example 1, L-N^α-(menthanecarboxyl)glycine-N-isobutylamide] |  |  | 5
